Source: PubChem BioAssay AID330 (DTP/NCI, 2004)
Several values for one entry are separate records, joined by “and”; a condition that tells them apart may be missing. Equal values may be shown once. Inconclusive results and toxic doses are left out.

Test system: P388 leukemia ip, CD2F1 mice, survival T/C
Assay: NCI In Vivo Anticancer Drug Screen. Data for tumor model P388 Leukemia (intraperitoneal) in CD2F1 (CDF1) mice
Details: endpoint: median survival time, higher = longer survival
Summary of the method: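 Mice carrying the transplanted tumor received test compound or vehicle. Survival was recorded in each group, and the value is the treated-group measurement divided by that of the vehicle-treated control group.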

[1] = dose: 12.5 mg/kg/injection, schedule: Q01DX009 (ip), vehicle: saline
[2] = dose: 25.0 mg/kg/injection, schedule: Q01DX009 (ip), vehicle: saline
[3] = dose: 50.0 mg/kg/injection, schedule: Q01DX009 (ip), vehicle: saline
[4] = dose: 50.0 mg/kg/injection, schedule: Q01DX009 (ip), vehicle: suspension in saline
[5] = dose: 100.0 mg/kg/injection, schedule: Q01DX009 (ip), vehicle: suspension in saline
[6] = dose: 200.0 mg/kg/injection, schedule: Q01DX009 (ip), vehicle: suspension in saline
[7] = dose: 50.0 mg/kg/injection, schedule: Q01DX009 (ip), vehicle: saline with Tween-80
[8] = dose: 100.0 mg/kg/injection, schedule: Q01DX009 (ip), vehicle: saline with Tween-80
[9] = dose: 200.0 mg/kg/injection, schedule: Q01DX009 (ip), vehicle: saline with Tween-80
[10] = dose: 60.0 mg/kg/injection, schedule: Q01DX005 (ip), vehicle: saline
[11] = dose: 120.0 mg/kg/injection, schedule: Q01DX005 (ip), vehicle: saline
[12] = dose: 240.0 mg/kg/injection, schedule: Q01DX005 (ip), vehicle: saline
[13] = dose: 50.0 mg/kg/injection, schedule: Q01DX005 (ip), vehicle: Klucel (hydroxypropylcellulose) (HPC)
[14] = dose: 100.0 mg/kg/injection, schedule: Q01DX005 (ip), vehicle: Klucel (hydroxypropylcellulose) (HPC)
[15] = dose: 100.0 mg/kg/injection, schedule: Q01DX001 (ip), vehicle: saline with Tween-80
[16] = dose: 200.0 mg/kg/injection, schedule: Q01DX001 (ip), vehicle: saline with Tween-80
[17] = dose: 60.0 mg/kg/injection, schedule: Q01DX005 (ip), vehicle: saline with Tween-80
[18] = dose: 120.0 mg/kg/injection, schedule: Q01DX005 (ip), vehicle: saline with Tween-80
[19] = dose: 12.5 mg/kg/injection, schedule: Q01DX005 (ip), vehicle: Klucel (hydroxypropylcellulose) (HPC)
[20] = dose: 50.0 mg/kg/injection, schedule: Q01DX005 (ip), vehicle: saline

For Cc1cc(N2C(=O)CCSC2=S)ccc1F, the T/C [1] was 101 % of control, the T/C [2] was 108 % of control and the T/C [3] was 108 % of control. The T/C [4] was 91 % of control, the T/C [5] was 94 % of control and the T/C [6] was 88 % of control.
COc1ccc(OC)c(NC(=O)Oc2cccc(NC(C)=O)c2)c1 was tested, and the T/C (dose: 25.0 mg/kg/injection, schedule: Q01DX009 (ip), vehicle: saline with Tween-80) was 105 % of control, the T/C [7] was 106 % of control and the T/C [8] was 104 % of control. For the same molecule, the T/C [9] was 107 % of control and the T/C (dose: 400.0 mg/kg/injection, schedule: Q01DX009 (ip), vehicle: saline with Tween-80) was 104 % of control.
In the case of NCC(SSC(CN)C(=O)O)C(=O)O (stereo unspecified), the T/C [1] is reported as 100 % of control, the T/C [2] is reported as 101 % of control and the T/C [3] is reported as 103 % of control and 115 % of control.
CC(=O)c1cc(C)oc1C was tested, and the T/C [2] was 100 % of control, the T/C [3] was 100 % of control and 111 % of control and 112 % of control and the T/C (dose: 100.0 mg/kg/injection, schedule: Q01DX009 (ip), vehicle: saline) was 109 % of control and 111 % of control and 112 % of control. For the same molecule, the T/C (dose: 400.0 mg/kg/injection, schedule: Q01DX009 (ip), vehicle: saline) was 116 % of control.
With COc1cc2c(cc1OC)C(CC1CCN3CCCCC3C1)NCC2 (stereo unspecified) the T/C (dose: 87.5 mg/kg/injection, schedule: Q04DX003 (ip), vehicle: saline) was 103 % of control.
In the case of Nc1n[nH]c(N)n1, the T/C [8] is reported as 109 % of control and the T/C (dose: 800.0 mg/kg/injection, schedule: Q01DX009 (ip), vehicle: saline with Tween-80) is reported as 163 % of control.
In the case of CCCCCC(/C=C/C1C(O[Si](C)(C)C(C)(C)C)CC(N(C)C)C1(C/C=C/CCCC(=O)OC)S(=O)(=O)c1ccccc1)O[Si](C)(C)C(C)(C)C (stereo unspecified), the T/C (dose: 100.0 mg/kg/injection, schedule: Q04DX002 (ip), vehicle: Klucel (hydroxypropylcellulose) (HPC)) is reported as 91 % of control, the T/C (dose: 200.0 mg/kg/injection, schedule: Q04DX002 (ip), vehicle: Klucel (hydroxypropylcellulose) (HPC)) is reported as 88 % of control and the T/C (dose: 400.0 mg/kg/injection, schedule: Q04DX002 (ip), vehicle: Klucel (hydroxypropylcellulose) (HPC)) is reported as 89 % of control.
C=C1C(=O)C2=CC1CCC(=O)C1(C)C(OC(C)=O)CC(OC(C)=O)C(C)(C)C1CC2O (stereo unspecified) was tested, and the T/C (dose: 17.5 mg/kg/injection, schedule: Q01DX005 (ip), vehicle: Klucel (hydroxypropylcellulose) (HPC)) was 108 % of control, the T/C (dose: 35.0 mg/kg/injection, schedule: Q01DX005 (ip), vehicle: Klucel (hydroxypropylcellulose) (HPC)) was 109 % of control and the T/C (dose: 70.0 mg/kg/injection, schedule: Q01DX005 (ip), vehicle: Klucel (hydroxypropylcellulose) (HPC)) was 111 % of control.
COC(=O)/C=C(\I)C(=O)OC was tested, and the T/C (dose: 3.13 mg/kg/injection, schedule: Q01DX009 (ip), vehicle: saline with Tween-80) was 104 % of control, the T/C (dose: 6.25 mg/kg/injection, schedule: Q01DX009 (ip), vehicle: saline with Tween-80) was 101 % of control and the T/C (dose: 12.5 mg/kg/injection, schedule: Q01DX009 (ip), vehicle: saline with Tween-80) was 92 % of control.
For CCC(O)C#C[Si](C)(C)C (stereo unspecified), the T/C [10] was 97 % of control, the T/C [11] was 100 % of control and the T/C [12] was 103 % of control.
With Nc1nc2ncc(CN(C(=O)CCCl)c3ccc(C(=O)NC(CCC(=O)O)C(=O)O)cc3)nc2c(=O)[nH]1 (stereo unspecified) the T/C (dose: 50.0 mg/kg/injection, schedule: Q01DX009 (ip), vehicle: alkali diluted with saline) was 100 % of control, the T/C (dose: 100.0 mg/kg/injection, schedule: Q01DX009 (ip), vehicle: alkali diluted with saline) was 108 % of control and the T/C (dose: 200.0 mg/kg/injection, schedule: Q01DX009 (ip), vehicle: alkali diluted with saline) was 101 % of control.
In the case of CCOC(=O)/C(C#N)=C/Nc1cc(C(=O)OC)ccc1C, the T/C (dose: 50.0 mg/kg/injection, schedule: Q01DX005 (ip), vehicle: saline with Tween-80) is reported as 88 % of control and the T/C (dose: 100.0 mg/kg/injection, schedule: Q01DX005 (ip), vehicle: saline with Tween-80) is reported as 90 % of control.
With O=C(OCC(Cl)(Cl)Cl)N1[C@@H]2C=C[C@@H](N1C(=O)OCC(Cl)(Cl)Cl)[C@@]13CCCCC21O3 (stereo partly specified) the T/C [13] was 102 % of control, the T/C [14] was 108 % of control and the T/C (dose: 200.0 mg/kg/injection, schedule: Q01DX005 (ip), vehicle: Klucel (hydroxypropylcellulose) (HPC)) was 103 % of control.
With N#CC(C(O)c1ccccc1)N1CCOCC1 (stereo unspecified) the T/C [4] was 102 % of control, the T/C [5] was 109 % of control and the T/C [6] was 94 % of control.
CC(CC(N)=O)Cc1ccccc1 (stereo unspecified) was tested, and the T/C [15] was 104 % of control, the T/C [16] was 103 % of control and the T/C (dose: 400.0 mg/kg/injection, schedule: Q01DX001 (ip), vehicle: saline with Tween-80) was 104 % of control.
In the case of CC(C)c1cccc(C(C)C)c1NC(=O)OCCN(C)C, the T/C [17] is reported as 100 % of control and the T/C [18] is reported as 115 % of control.
In the case of C1CCCc2c(-c3noc4c3CCCCCC4)noc2CC1, the T/C [10] is reported as 98 % of control, the T/C [11] is reported as 99 % of control and the T/C [12] is reported as 108 % of control.
COc1ccc(N=Cc2cc3c(cc2Br)OCO3)cc1 was tested, and the T/C (dose: 25.0 mg/kg/injection, schedule: Q01DX009 (ip), vehicle: other) was 97 % of control, the T/C (dose: 50.0 mg/kg/injection, schedule: Q01DX009 (ip), vehicle: other) was 96 % of control and the T/C (dose: 100.0 mg/kg/injection, schedule: Q01DX009 (ip), vehicle: other) was 94 % of control. The T/C (dose: 200.0 mg/kg/injection, schedule: Q01DX009 (ip), vehicle: other) was 100 % of control and the T/C (dose: 400.0 mg/kg/injection, schedule: Q01DX009 (ip), vehicle: other) was 100 % of control.
Cc1ccc2ncc(C)c(/C=C/c3ccc(N(C)C)cc3)c2c1 was tested, and the T/C (dose: 50.0 mg/kg/injection, schedule: Q01DX001 (ip), vehicle: saline with Tween-80) was 108 % of control, the T/C [15] was 112 % of control and the T/C [16] was 122 % of control.
Cn1c2ncccc2c(=O)c2c(O)cc3c(c21)C=CC(C)(C)O3 was tested, and the T/C [19] was 100 % of control, the T/C (dose: 25.0 mg/kg/injection, schedule: Q01DX005 (ip), vehicle: Klucel (hydroxypropylcellulose) (HPC)) was 102 % of control and the T/C [13] was 101 % of control and 93 % of control.
In the case of CCn1c2ccccc2c2c3c(NCCCN(C)C)cc(C)nc3ccc21, the T/C (dose: 5.5 mg/kg/injection, schedule: Q01DX009 (ip), vehicle: suspension in saline) is reported as 93 % of control, the T/C (dose: 11.0 mg/kg/injection, schedule: Q01DX009 (ip), vehicle: suspension in saline) is reported as 97 % of control and the T/C (dose: 22.0 mg/kg/injection, schedule: Q01DX009 (ip), vehicle: suspension in saline) is reported as 97 % of control.
For CC(C)NC(=O)OCc1c(COC(=O)NC(C)C)c2cccn2c2c1cnn2-c1ccccc1, the T/C (dose: 30.0 mg/kg/injection, schedule: Q01DX005 (ip), vehicle: saline with Tween-80) was 87 % of control, the T/C [17] was 89 % of control and the T/C [18] was 89 % of control and 91 % of control. The T/C (dose: 240.0 mg/kg/injection, schedule: Q01DX005 (ip), vehicle: saline with Tween-80) was 96 % of control.
Cc1cccc(/C=C/C(=O)C(CN(C)C)CN(C)C)c1 was tested, and the T/C (dose: 6.25 mg/kg/injection, schedule: Q01DX005 (ip), vehicle: Klucel (hydroxypropylcellulose) (HPC)) was 104 % of control and the T/C [19] was 100 % of control.
For CCC12COC3(C)CCC(C)(OC1)N23 (stereo unspecified), the T/C [20] was 100 % of control, the T/C [7] was 91 % of control and the T/C (dose: 100.0 mg/kg/injection, schedule: Q01DX005 (ip), vehicle: saline) was 100 % of control. The T/C [8] was 91 % of control, the T/C (dose: 200.0 mg/kg/injection, schedule: Q01DX005 (ip), vehicle: saline) was 103 % of control and the T/C [9] was 98 % of control.
With O=C1NCC(=O)N2CCCC12 (stereo unspecified) the T/C [10] was 99 % of control, the T/C [11] was 100 % of control and the T/C [12] was 107 % of control.
In the case of COC(=O)/C(C#N)=C/c1ccco1, the T/C [13] is reported as 98 % of control and the T/C [14] is reported as 98 % of control.
Cc1nc(Br)c(Br)n1C was tested, and the T/C [17] was 93 % of control and the T/C [18] was 88 % of control.
With CCCCN(CCCC)CCOc1ccc(/C(CC)=C(/CC)c2ccc(OCCN(CCCC)CCCC)cc2)cc1 the T/C (dose: 12.5 mg/kg/injection, schedule: Q01DX005 (ip), vehicle: saline) was 100 % of control, the T/C (dose: 25.0 mg/kg/injection, schedule: Q01DX005 (ip), vehicle: saline) was 87 % of control and the T/C [20] was 100 % of control and 102 % of control.
For Cc1ccc(C(O)(c2nc3ccccc3s2)c2nc3ccccc3s2)cc1, the T/C [7] was 101 % of control, the T/C [8] was 112 % of control and the T/C [9] was 113 % of control.
